# Results taken from patent US20110152332A1, “Pesticidal Heterocyclic Compounds” (Bayer CropScience AG, priority 2009, published 2011).
# What was measured:
# Format in all cases: in vivo
# [1] = tested on: Tobacco cutworm (Spodoptera litura) larvae; assay: Test against tobacco cutworm (Spodoptera litura) larvae, leaf dip; settings: active compound concentration 100 ppm; third instar larvae on dipped sweet potato leaves; after 7 days
# Method: (§1) Unless described otherwise, the test solutions were prepared as follows:
# (§2) The active compound, 1 part by weight of the active compound was admixed with the solvent in the above described amount which contains the emulsifying agent in the above described amount. The mixture was then diluted with water to specific concentration.
# (§3) In order to prepare the test solution containing the active compound, 1 part by weight of the active compound was admixed with 3 parts by weight of the solvent dimethyl formamide which contains 1 part by weight of the emulsifying agent polyoxyethylene alkylphenyl ether. This mixture is then diluted with water to the specific concentration.
# (§4) Solvent: dimethyl formamide, 3 parts by weight; emulsifying agent: polyoxyethylene alkylphenyl ether, 1 part by weight
# Leaves of sweet potato were immersed in the test solution at the appropriate concentration, and the leaves were dried in air. The leaves were then placed in a petri dish having a diameter of 9 cm, and ten Spodoptera litura at third instar larvae were released therein. The petri dishes were placed in a temperature-controlled chamber at 25° C. After 2 days and 4 days more sweet potato leaves were added. After 7 days, the number of dead larvae was counted to calculate the insecticidal activity. An insecticidal activity of 100% means that all larvae were killed, whereas an insecticidal activity of 0% means that no larva was killed. In the current test, the results of two petri dishes for each treatment were averaged.
# [2] = tested on: Two-spotted spider mite (Tetranychus urticae); assay: Test against two-spotted spider mite (Tetranychus urticae), spray; settings: active compound concentration 100 ppm; adult mites on kidney bean, sprayed; after 7 days
# Method: as §1, §2, §3, §4
# 50 to 100 adult mites of Tetranychus urticae were inoculated to leaves of kidney bean at two-leaf stage planted in a pot of 6 cm in diameter. After one day, test solution at the appropriate concentration was sprayed thereon in a sufficient amount using a spray gun. After the spraying, the plant pot was placed inside a greenhouse, and after 7 days, the acaricidal activity was calculated. An acaricidal activity of 100% means that all mites were killed, whereas an acaricidal activity of 0% means that no mite was killed.
# [3] = tested on: Cucurbit leaf beetle (Aulacophora femoralis); assay: Test against cucurbit leaf beetle (Aulacophora femoralis), leaf dip; settings: active compound concentration 100 ppm; second instar larvae on dipped cucumber leaves; after 7 days
# Method: as §1, §2, §3, §4
# Leaves of cucumber were immersed in the test solution at the appropriate concentration, and the leaves were dried in air. The leaves were then put in a plastic cup containing sterilized black soil and five Aulacophora femoralis at second instar larvae were released in the cup. The cups were placed in a temperature-controlled chamber at 25° C. After 7 days, the number of dead larvae was counted, and thus the insecticidal activity was calculated. An insecticidal activity of 100% means that all larvae were killed, whereas an insecticidal activity of 0% means that no larva was killed.
# Ctenocephalides felis = assay: Ctenocephalides felis-test (CTECFE); settings: application rate 100 ppm in cattle blood, adult unfed fleas, after 2 days
# Method: (§5) Solvent: dimethyl sulfoxide
# To produce a suitable preparation of active compound, 10 mg of active compound are dissolved in 0.5 ml solvent, and the concentrate is diluted with cattle blood to the desired concentration. Approximately 20 adult unfed (Ctenocephalides felis) are placed in flea chambers. The blood chamber, sealed with parafilm on the bottom, are filled with cattle blood supplied with compound solution and placed on top of the flea chamber, so that the fleas are able to suck the blood. The blood chamber is heated to 37° C. whereas the flea chamber is kept at room temperature. After 2 days mortality in % is determined. 100% means that all the fleas have been killed; 0% means that none of the fleas have been killed.
# Musca domestica = assay: Musca domestica-test; settings: application rate 100 ppm, adults, sugar/compound soaked sponge, after 2 days
# Method: as §5
# To produce a suitable preparation of active compound, 10 mg of active compound are dissolved in 0.5 ml solvent, and the concentrate is diluted with water to the desired concentration. Prior to the assay, a piece of kitchen sponge is soaked with a mixture of sugar and compound solution and placed into a container. 10 adults (Musca domestica) are placed into the container and closed with a perforated lid. After 2 days mortality in % is determined. 100% means that all the flies have been killed; 0% means that none of the flies have been killed.
# Boophilus microplus = Boophilus microplus (dip); settings: application rate 100 ppm; adult engorged female ticks dipped one minute; after 7 days
# Method: Solvent: dimethylsulfoxid
# To produce a suitable preparation of active compound, 10 mg of active compound are dissolved in 0.5 ml solvent, and the concentrate is diluted with water to the desired concentration. Eight to ten adult engorged female Boophilus microplus ticks are placed in perforated plastic beakers and immersed in aqueous compound solution for one minute. Ticks are transferred to a filter paper in a plastic tray. Egg deposition of fertile eggs is monitored after. After 7 days mortality in % is determined. 100% means that all the ticks have been killed; 0% means that none of the ticks have been killed.
# [4] = tested on: Lucilia cuprina 1st instar larvae; assay: Lucilia cuprina-test (LUCICU 48 h); settings: application rate 100 ppm, 1st instar larvae on minced horse meat, after 2 days, read-out: activity (percentage of larval mortality)
# Method: Species: Lucilia cuprina 1st instar larvae (age 24 hrs)
# as §5
# 10 mg active compound are dissolve in 0.5 ml Dimethylsulfoxid. Serial dilutions are made to obtain the desired rates. Approximately 20 Lucilia cuprina 1st instar larvae are transferred into a test tube containing 1 cm^3 of minced horse meat and 0.5 ml aqueous dilution of test compound. After 2 days percentage of larval mortality are recorded. 100% efficacy=all larvae are killed, […].
SMILES,insecticidal activity [1] [%],acaricidal activity [2] [%],insecticidal activity [3] [%],activity (mortality in %) (Ctenocephalides felis) [%],activity (mortality in %) (Musca domestica) [%],activity (mortality in %) (Boophilus microplus) [%],mortality at 100 ppm [4] [%],"mortality at 100 ppm (Ctenocephalides felis; Ctenocephalides felis, 48 h) [%]","mortality at 100 ppm (Musca domestica; Musca domestica, 48 h) [%]"
O=C(CC(F)(F)F)NCc1ccc(N2CC(c3cc(C(F)(F)F)cc(C(F)(F)F)c3)(C(F)(F)F)OC2=O)cc1Cl (centres unmarked) [Compound 1-147],100,100,100,95,,,,,
CCC(=O)NCc1ccc(N2CC(c3cc(Cl)c(Cl)c(Cl)c3)(C(F)(F)F)OC2=O)cc1 (centres unmarked) [Compound 1-59],100,,100,95,,,,,
CCC(=O)NCc1ccc(N2CC(c3cccc(C(F)(F)F)c3)(C(F)(F)F)OC2=O)cc1C(F)(F)F (centres unmarked) [Compound 1-73],100,,100,,80,,,,
CCC(=O)NCc1ccc(N2CC(c3cc(Cl)c(Cl)c(Cl)c3)(C(F)(F)F)OC2=O)cc1C(F)(F)F (centres unmarked) [Compound 1-17],100,100,100,,90,100,,,
O=C(NCc1ccc(N2CC(c3cc(C(F)(F)F)cc(C(F)(F)F)c3)(C(F)(F)F)OC2=O)cc1Cl)C1CC1 (centres unmarked) [Compound 1-145],100,100,100,95,80,,,,
Cc1cc(N2CC(c3cc(C(F)(F)F)cc(C(F)(F)F)c3)(C(F)(F)F)OC2=O)ccc1CNC(=O)C[S+](C)[O-] (centres unmarked) [Compound 1-163],,,,80,,,,,
CC(=O)NCc1ccc(N2CC(c3cc(Cl)cc(Cl)c3)(C(F)(F)F)OC2=O)cc1C(F)(F)F (centres unmarked) [Compound 1-2],100,,100,95,,80,,,
"CCC(=O)NCc1ccc(N2CC(c3cc(Cl)cc(Cl)c3)(C(F)(F)F)OC2=O)cc1C(F)(F)F (centres unmarked) [Compound 1-3, N-{4-[5-(3,5-dichlorophenyl)-2-oxo-5-(trifluoromethyl)-1,3-oxazolin-3-yl]-2-(trifluoromethyl)benzyl}propane amide]",100,100,100,,,,100,95,100
Cc1cc(N2CC(c3cc(C(F)(F)F)cc(C(F)(F)F)c3)(C(F)(F)F)OC2=O)ccc1CNC(=O)C1CC1 (centres unmarked) [Compound 1-159],100,,100,95,90,,,,
CSCC(=O)NCc1ccc(N2CC(c3cc(C(F)(F)F)cc(C(F)(F)F)c3)(C(F)(F)F)OC2=O)cc1C(F)(F)F (centres unmarked) [Compound 1-134],100,100,100,,,,,,
Cc1cc(N2CC(c3cc(C(F)(F)F)cc(C(F)(F)F)c3)(C(F)(F)F)OC2=O)ccc1CNC(=O)CC(F)(F)F (centres unmarked) [Compound 1-161],100,,100,80,,,,,
O=C(CC1CC1)NC1CCc2cc(N3CC(c4cc(Cl)c(Cl)c(Cl)c4)(C(F)(F)F)OC3=O)ccc21 (centres unmarked) [Compound 4-34],100,100,100,,,,,,
O=C(CC(F)(F)F)NCc1ccc(N2CC(c3cc(Cl)cc(Cl)c3)(C(F)(F)F)OC2=O)cc1C(F)(F)F (centres unmarked) [Compound 1-7],100,100,100,95,,,,,
CC(=O)NCc1ccc(N2CC(c3cc(Cl)c(Cl)c(Cl)c3)(C(F)(F)F)OC2=O)cc1C(F)(F)F (centres unmarked) [Compound 1-16],100,100,100,,90,80,,,
